Converted amounts (≈) assume the structure as drawn. Like-named read-outs stand apart in the source and are kept apart here.
Tests used:
[1] = target: single beta-lactamase in K. pneumoniae cell extracts (Escherichia coli, UniProt P62593, E102K/R162S); test: Spectrophotometric hydrolysis assay on crude beta-lactamase extracts; details: K. pneumoniae Pit 16 extract, beta-lactamase pI 5.6; 100 μM substrate
[2] = target: single beta-lactamase in K. pneumoniae cell extracts (Klebsiella pneumoniae, UniProt P0AD64, E235K/G234S); test: as above; details: K. pneumoniae Pit 82 extract, beta-lactamase pI 8.2; 100 μM substrate
[3] = target: single beta-lactamase in K. pneumoniae cell extracts (Klebsiella pneumoniae, UniProt P0AD64, G234S); test: as above; details: K. pneumoniae Pit 100 extract, beta-lactamase pI 7.6; 100 μM substrate
[4] = target: single beta-lactamase in E. coli cell extracts (Escherichia coli, UniProt P62593, E102K/R162S); test: as above; details: E. coli Pit 64 extract, beta-lactamase pI 5.6; 100 μM substrate
[5] = target: single beta-lactamase in P. mirabilis cell extracts (Escherichia coli, UniProt P62593, E102K/R162S); test: as above; details: P. mirabilis Pit 85 extract, beta-lactamase pI 5.6; 100 μM substrate
E. aerogenes [6] = test: Disk diffusion susceptibility test; assay type: cell-based, Enterobacter aerogenes; details: all the E. aerogenes strains
Method: (§1) Antibiotic susceptibilities were determined by standard disk-diffusion (NCCLS Standard M2-A6) and agar-dilution (NCCLS Standard M7-A4) procedures. Disks were obtained from Becton Dickinson Microbiology Systems (Cockeysville, Md.). Disk-diffusion susceptibilities to the following antibiotics were determined, ampicillin; amoxicillin clavulanic acid; aztreonam; cefazolin; cefoxitin; cefuroxime; cefotaxime; ceftriaxone; ceftazidime; cefepime; imipenem; gentamicin; trimethoprim/sulfamethoxazole and ciprofloxacin. […] The following quality control strains were run simultaneously with the test organisms Escherichia coli ATCC 25922, Pseudomonas aeruginosa ATCC 27853, and E. coli ATCC 35218. Throughout this study, results were interpreted using NCCLS criteria for disk diffusion (NCCLS M2-A6) and broth dilution (NCCLS M7-A4).

[7] = tested on: E. coli HB101 transformant (17 kb plasmid); details: disk diffusion, Tr (17 kb) = transformant E. coli HB101
K. pneumoniae 225 [8] = test: NCCLS microdilution susceptibility test; assay type: cell-based, Klebsiella pneumoniae
K. pneumoniae 225 [9] = test: NCCLS disk diffusion assay; assay type: cell-based, Klebsiella pneumoniae; details: Kleb 225; for Zone Size: disk diffusion
K. pneumoniae = test: Agar dilution MIC, South African isolates; assay type: cell-based, Klebsiella pneumoniae; details: tzp with tazobactam 4 μg/ml
Description: (§2) The strains were provided in response to a request for all strains of Enterobacteriaceae, lacking inducible beta-lactamases, that were intermediate or resistant to cefotaxime or ceftazidime. […]

E. coli = test: Agar dilution MIC, South African isolates; assay type: cell-based, Escherichia coli; details: tzp with tazobactam 4 μg/ml
Description: as §2

P. mirabilis = test: Agar dilution MIC, South African isolates; assay type: cell-based, Proteus mirabilis; details: 4 strains, tzp with tazobactam 4 μg/ml
Description: During a period of three months in 1993, […] strains of Klebsiella pneumoniae (13 blood, 5 burn, 7 wound, 11 tracheal isolates), 4 strains of Proteus mirabilis (all wound isolates) and 4 strains of Escherichia coli (1 blood, 1 burn, 2 wound isolates) were collected from patients at the following medical centers in South Africa: Tygerberg Hospital near Cape Town, King Edward VIII Hospital in Durban, Chris Hani Baragwanath Hospital in Soweto and Pretoria Academic Hospital in Pretoria. The strains were provided in response to a request for all strains of Enterobacteriaceae, lacking inducible beta-lactamases, that were intermediate or resistant to cefotaxime or ceftazidime. […] Therefore accurate prevalence data were not obtained.
Antibiotic susceptibility was determined by standard disk diffusion (NCCLS Standard M2-T4, 1994) and agar dilution (NCCLS Standard M7-T2, 1994) procedures. Standard powders of antimicrobial agents were kindly provided by the following companies: piperacillin and tazobactam (Lederle Laboratories, Wayne, N.J.); cefoxitin and imipenem, (Merck, Rathway, N.J.); cefotaxime, (Hoechst-Roussel Pharmaceuticals Inc., Somerville, N.J.); ceftazidime, (Glaxo Group Research Ltd., Greenford, England); aztreonam and cefepime, (Bristol-Myers Squibb, Princeton, N.J.). Disks for agar diffusion were obtained from Becton Dickinson Microbiology Systems (Cockeysville, Md.). For quality control purposes, the following quality control strains were run simultaneously with the test organisms E. coli ATCC 25922, Pseudomonas aeruginosa ATCC 27853, E. coli ATCC 35218, and Staphylococcus aureus ATCC 29213. Throughout this study, results were interpreted using NCCLS criteria for disk diffusion (NCCLS Standard M2-T4, 1994) and broth dilution (NCCLS Standard M7-T2, 1994).

[10] = tested on: E. coli C600N transconjugants; test: Susceptibility of transconjugants; assay type: cell-based, Escherichia coli; details: E. coli C600N transconjugants of E. aerogenes 187, 200, 220, 184
Method: as §1
[…]. The filter paper mating technique with overnight incubation at 37° C. were performed as described previously (Philippon et al., Antimicrob. Agents Chemother., 33:1131-1136 (1989)). Transconjugants were selected on LB (Luria Bertani) agar [Difco (Detroit, Mich.)] plates containing 12 μg per ml nalidixic acid and 20 μg per ml ampicillin.

[11] = tested on: E. coli C600 transconjugant; details: disk diffusion, Tc = transconjugate E. coli C600
K. pneumoniae 225 [12] = test: Three-dimensional test (enzymatic inactivation of antibiotics); details: beta-lactamase-mediated hydrolysis by K. pneumoniae 225, lawn E. coli ATCC 25922
E. aerogenes [13] = assay type: cell-based, Enterobacter aerogenes
Method: Antibiotic susceptibilities were determined by standard disk-diffusion (NCCLS Standard M2-A6) and agar-dilution (NCCLS Standard M7-A4) procedures. Disks were obtained from Becton Dickinson Microbiology Systems (Cockeysville, Md.). […] Throughout this study, results were interpreted using NCCLS criteria for disk diffusion (NCCLS M2-A6) and broth dilution (NCCLS M7-A4).

[14] = tested on: beta-lactamases in sonic extracts of E. aerogenes; test: Isoelectric focusing overlay: cefotaxime hydrolysis, inhibitors, induction; details: cefoxitin at 1/4 of the MIC
K. pneumoniae 225 [15] = test: MicroScan Walkaway microdilution susceptibility test; assay type: cell-based, Klebsiella pneumoniae; details: for MIC: Klebsiella pneumoniae, 225, read-out: MicroScan MIC
[16] = resistance phenotype Kpn1, 8 strains
[17] = resistance phenotype Kpn2, 28 strains
[18] = resistance phenotype Ec1, 3 strains
[19] = resistance phenotype Ec2, 1 strain
[20] = 1 E. aerogenes strain with Bush group 1 and group 2be (SHV-3) enzymes
[21] = 1 E. aerogenes strain with Bush group 1 and group 2be (SHV-5) enzymes
[22] = 29 E. aerogenes strains with Bush group 1 and group 2be (SHV-4) enzymes

O=C(Cc1cccs1)N[C@@H]1C(=O)N2C(C(=O)O)=C(/C=C/c3ccc([N+](=O)[O-])cc3[N+](=O)[O-])CS[C@H]12 [Nitrocefin]
Hydrolysis [1]: 114 nmol of substrate hydrolyzed/m
Hydrolysis [2]: 136 nmol of substrate hydrolyzed/m
Hydrolysis [3]: 159 nmol of substrate hydrolyzed/m
Hydrolysis [4]: 275 nmol of substrate hydrolyzed/m
Hydrolysis [5]: 138 nmol of substrate hydrolyzed/m

CC1(C)S[C@@H]2[C@H](NC(=O)[C@H](N)c3ccccc3)C(=O)N2[C@H]1C(=O)O [ampicillin]
Disk diffusion susceptibility (E. aerogenes [6]): resistant
Zone Size [7]: 7 mm

C[C@H]1[C@H](NC(=O)/C(=N\OC(C)(C)C(=O)O)c2csc(N)n2)C(=O)N1S(=O)(=O)O [aztreonam]
MIC (K. pneumoniae 225 [8]; Klebsiella pneumoniae, 225): > 64 µg/mL
Zone Size (K. pneumoniae 225 [9]): 8 mm
MIC range (K. pneumoniae; [16]): 16 to 64 µg/mL
MIC range (K. pneumoniae; [17]): 1 to 128 µg/mL
MIC range (K. pneumoniae; resistance phenotype Kpn3 (K. pneumoniae Pit 68), 1 strain, listed as atm): 2 µg/mL
MIC range (E. coli; [18]): 16 µg/mL
MIC range (E. coli; [19]): 2 µg/mL
MIC range (P. mirabilis): 0.5 to 2 µg/mL
susceptibility after transfer of plasmids encoding SHV beta-lactamase genes [10]: decreased susceptibility
Zone Size [7]: 33 mm
Zone Size [11]: 7 mm
three dimensional test (K. pneumoniae 225 [12]): positive
Hydrolysis [1]: 0.6 nmol of substrate hydrolyzed/m
Hydrolysis [2]: 0.9 nmol of substrate hydrolyzed/m
Hydrolysis [3]: 0.9 nmol of substrate hydrolyzed/m
Hydrolysis [4]: 0.4 nmol of substrate hydrolyzed/m
Hydrolysis [5]: 0.5 nmol of substrate hydrolyzed/m

Cc1nnc(SCC2=C(C(=O)O)N3C(=O)[C@@H](NC(=O)Cn4cnnn4)[C@H]3SC2)s1 [cefazolin]
MIC (K. pneumoniae 225 [8]; Klebsiella pneumoniae, 225): > 64 µg/mL
Disk diffusion susceptibility (E. aerogenes [6]): resistant

CO[C@@]1(NC(=O)Cc2cccs2)C(=O)N2C(C(=O)O)=C(COC(N)=O)CS[C@@H]21 [cefoxitin]
MIC (K. pneumoniae 225 [8]; Klebsiella pneumoniae, 225): > 64 µg/mL
Zone Size (K. pneumoniae 225 [9]): 6 mm
MIC range (K. pneumoniae; [16]): 2 to 4 µg/mL
MIC range (K. pneumoniae; [17]): 2 to 8 µg/mL
MIC range (K. pneumoniae; resistance phenotype Kpn3 (K. pneumoniae Pit 68), 1 strain): > 128 µg/mL
MIC range (K. pneumoniae; resistance phenotype Kpn3 (K. pneumoniae Pit 68), 1 strain, listed as fox): >128 µg/mL
MIC range (E. coli; [18]): 4 µg/mL
MIC range (E. coli; [19]): 8 µg/mL
MIC range (P. mirabilis): 2 to 4 µg/mL
MIC range (E. aerogenes [13]; [20]): >256 µg/mL
MIC range (E. aerogenes [13]; [21]): >256 µg/mL
MIC range (E. aerogenes [13]; [22]): >256 µg/mL
Zone Size [7]: 25 mm
Zone Size [11]: 7 mm
three dimensional test (K. pneumoniae 225 [12]): positive
Inducible by cefoxitin ([14]; SHV-3 strain (1), Bush group 1 enzyme pI 8.3): yes
Inducible by cefoxitin ([14]; SHV-3 strain (1), Bush group 2be enzyme pI 6.9): no
Inducible by cefoxitin ([14]; SHV-4 strains (29), Bush group 1 enzyme pI 8.3): yes
Inducible by cefoxitin ([14]; SHV-4 strains (29), Bush group 2be enzyme pI 7.8): no
Inducible by cefoxitin ([14]; SHV-5 strain (1), Bush group 1 enzyme pI 8.3): yes
Inducible by cefoxitin ([14]; SHV-5 strain (1), Bush group 2Be enzyme pI 8.0): no

CO/N=C(\C(=O)N[C@@H]1C(=O)N2C(C(=O)O)=C(COC(N)=O)CS[C@H]12)c1ccco1 [cefuroxime]
MicroScan susceptibility result (K. pneumoniae 225 [15]; K. pneumoniae 225): Resistant
MIC (K. pneumoniae 225 [15]): > 16 µg/mL
Disk diffusion susceptibility (E. aerogenes [6]): resistant

O=C(O)c1cn(C2CC2)c2cc(N3CCNCC3)c(F)cc2c1=O [ciprofloxacin]
MIC (K. pneumoniae 225 [8]; Klebsiella pneumoniae, 225): 0.5 µg/mL (≈ 1.51 µM)
MIC (K. pneumoniae 225 [15]): 2 µg/mL (≈ 6.04 µM)
Disk diffusion interpretation (K. pneumoniae 225 [9]): susceptible
Zone Size (K. pneumoniae 225 [9]): 22 mm
Disk diffusion susceptibility (E. aerogenes [6]): susceptible
Zone Size [7]: 31 mm
Zone Size [11]: 31 mm

amoxicillin/clavulanate
MIC (K. pneumoniae 225 [8]; NCCLS microdilution, Mueller-Hinton broth, K. pneumoniae 225): 64 µg/mL
Disk diffusion susceptibility (E. aerogenes [6]): resistant

gentamicin
MicroScan susceptibility result (K. pneumoniae 225 [15]; K. pneumoniae 225): Resistant
Zone Size (K. pneumoniae 225 [9]): 8 mm
MIC range (E. aerogenes [13]; [20]): 8 µg/mL
MIC range (E. aerogenes [13]; [21]): >128 µg/mL
MIC range (E. aerogenes [13]; [22]): 1 to 16 µg/mL
susceptibility after transfer of plasmids encoding SHV beta-lactamase genes [10]: resistance
Zone Size [7]: 25 mm
Zone Size [11]: 8 mm

trimethoprim/sulfamethoxazole
MicroScan susceptibility result (K. pneumoniae 225 [15]; K. pneumoniae 225): Resistant
MicroScan MIC (K. pneumoniae 225 [15]; MicroScan test, K. pneumoniae 225, unit not given): > 2/38
Zone Size (K. pneumoniae 225 [9]): 6 mm
Disk diffusion susceptibility (E. aerogenes [6]): resistant
susceptibility after transfer of plasmids encoding SHV beta-lactamase genes [10]: resistance
Zone Size [7]: 31 mm
Zone Size [11]: 8 mm

From US6893846B2, “Primers for use in detecting beta-lactamases” (priority 1998, dated 2005)
